In US20140163034A1, “INHIBITORS OF ANANDAMIDE TRANSPORT AND THEIR THERAPEUTIC USES” (IIT - Istituto Italiano di Tecnologia, priority 2011, published 2014):
pIC50, pKd: −log10 of the molar value.

Assays:
carrageenan-treated mice = assay: Carrageenan-induced inflammatory pain and paw edema in mice; type: in vivo; details: for effect of antagonist on the anti-hyperalgesic and anti-edema effects of ARN272: antagonist 1 mg/kg intraperitoneal, 30 min before carrageenan
Procedure: Behavioral experiments were performed in accordance with the Ethical Guidelines of the International Association for the Study of Pain and approved by Italian regulations on protection of animals used for experimental and other scientific purposes (D.M. 116192) as well as with European Economic Community regulations (O.J. of E.C. L 358/1 Dec. 18, 1986). Behavioral testing was performed between 9:00 a.m. and 5:00 p.m., in a quiet room, during the light cycle. Mice were used once and were sacrificed at the end of the experiment by cervical dislocation. edema was elicited by injecting λ-carrageenan (1% weight/vol in sterile water, 20 μl) into the left hindpaw of mice. Edema was measured with a plethysmometer (Ugo Basile, Comerio, Italy) at different time intervals. Drug solutions were prepared immediately before use in saline containing 10% PEG-400 and 10% Tween 80. Mechanical hyperalgesia was determined by measuring the latency in seconds to withdraw the paw away from a constant mechanical pressure exerted onto the dorsal surface. A 15-g calibrated glass cylindrical rod (diameter=10 mm) chambered to a conical point (diameter=3 mm) was used to exert the mechanical force. The weight was suspended vertically between two rings attached to a stand and was free to move vertically. A cutoff time of 180 s was used. Withdrawal thresholds were measured on both the inflamed paw (ipsilateral) and not inflamed paw (contralateral) 2, 4, 6 and 24 hours after carrageenan injection. Thermal hyperalgesia was assessed by the method of Hargreaves et al. (1988) by measuring the latency to withdraw the hind paw from a focused beam of radiant heat (thermal intensity: infrared 3.0) applied to the plantar surface using a plantar test apparatus (Ugo Basile). The cutoff time was set at 30 s. Withdrawal latency were measured on both inflamed and not-inflamed paws ( ) 2, 4, 6 and 24 hours after carrageenan injection. Vehicle or ARN272 (0.01-3 mg/kg, intraperitoneal) were injected immediately before carrageenan. AM251, AM630 and AMG 9810 (1 mg/kg, intraperitoneal) were injected 30 min before carrageenan.

[1] = target: T1, FLAT-expressing Hek293 cells (Rattus norvegicus, UniProt P97612, DEL9-76); assay: [3H]-anandamide accumulation (translocation) in FLAT-expressing Hek293 cells; type: cell-based; details: for pIC50: 5 min at 37° C., read-out: IC50, inhibition of [3H]-anandamide accumulation in FLAT-expressing Hek293 cells
T1 construct: expressed in transfected cells
T1 sequence (P97612 with tags, fused parts or gaps DEL9-76): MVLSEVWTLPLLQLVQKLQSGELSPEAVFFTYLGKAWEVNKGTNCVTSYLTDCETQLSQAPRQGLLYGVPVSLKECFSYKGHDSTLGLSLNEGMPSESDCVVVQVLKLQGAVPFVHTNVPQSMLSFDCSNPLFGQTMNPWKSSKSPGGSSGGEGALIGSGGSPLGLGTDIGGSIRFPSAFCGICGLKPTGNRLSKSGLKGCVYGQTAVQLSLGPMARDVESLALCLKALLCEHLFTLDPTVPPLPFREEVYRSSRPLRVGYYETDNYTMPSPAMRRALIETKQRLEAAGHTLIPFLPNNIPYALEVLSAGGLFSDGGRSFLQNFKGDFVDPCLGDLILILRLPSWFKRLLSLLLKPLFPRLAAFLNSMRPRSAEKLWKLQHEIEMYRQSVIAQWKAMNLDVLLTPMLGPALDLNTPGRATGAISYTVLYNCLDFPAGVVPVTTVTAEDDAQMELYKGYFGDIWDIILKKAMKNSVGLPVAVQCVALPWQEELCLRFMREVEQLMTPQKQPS

rat FLAT-GST = target: T2, rat FLAT-GST (Rattus norvegicus, UniProt P97612, DEL9-76); assay: [3H]-anandamide binding to purified GST-FLAT fusion protein
T2 construct: made in house; host or cells: E. coli BL21
T2 sequence (P97612 with tags, fused parts or gaps DEL9-76): T1 sequence (P97612 with tags, fused parts or gaps DEL9-76)
Procedure: A pGEX-rFLAT plasmid containing fused rat FLAT and GST genes was constructed into a pGEX-4T vector (Amersham Biosciences, Piscataway, N.J.) and digested with BamH 1. The GST-FLAT fusion protein was generated in E. coli (BL21 strain, Novagen, San Diego, Calif.). E. coli were cultured in 2× yeast extract medium and induced with isopropyl-1-thio-β-D-galactopyranoside (IPTG) (0.1 mM). After induction, bacteria were grown at 27° C. for 10 h and harvested by centrifugation. The GST-FLAT fusion protein was purified using glutathione-sepharose beads (Amersham Biosciences), following manufacturer's instructions. Purified GST-FLAT was incubated at 25° C. for 2 h in HEPES buffer (50 mM, pH 7.0) containing KCl (50 mM), EDTA (5 mM), dithiothreitol (10 mM), and [^3H]-anandamide (15 Ci/mmol). Free from bound [^3H]-anandamide was separated on a Sephadex G-25 spin column (Amersham Biosciences) and radioactivity in the bound fraction was measured by liquid scintillation counting. Non-specific binding was determined in the presence of non-radioactive anandamide (10 μM).

rat cortical neurons = details: read-out: apparent Michaelis constant, KM, of anandamide transport; cited from earlier work
recombinant human FAAH-1 = target: T3, recombinant human FAAH-1 (Homo sapiens, UniProt O00519); assay: Hydrolysis of compound by incubation with recombinant human FAAH-1; type: in vitro ADME; details: after 24 h at 25° C.
T3 sequence (O00519 1-579): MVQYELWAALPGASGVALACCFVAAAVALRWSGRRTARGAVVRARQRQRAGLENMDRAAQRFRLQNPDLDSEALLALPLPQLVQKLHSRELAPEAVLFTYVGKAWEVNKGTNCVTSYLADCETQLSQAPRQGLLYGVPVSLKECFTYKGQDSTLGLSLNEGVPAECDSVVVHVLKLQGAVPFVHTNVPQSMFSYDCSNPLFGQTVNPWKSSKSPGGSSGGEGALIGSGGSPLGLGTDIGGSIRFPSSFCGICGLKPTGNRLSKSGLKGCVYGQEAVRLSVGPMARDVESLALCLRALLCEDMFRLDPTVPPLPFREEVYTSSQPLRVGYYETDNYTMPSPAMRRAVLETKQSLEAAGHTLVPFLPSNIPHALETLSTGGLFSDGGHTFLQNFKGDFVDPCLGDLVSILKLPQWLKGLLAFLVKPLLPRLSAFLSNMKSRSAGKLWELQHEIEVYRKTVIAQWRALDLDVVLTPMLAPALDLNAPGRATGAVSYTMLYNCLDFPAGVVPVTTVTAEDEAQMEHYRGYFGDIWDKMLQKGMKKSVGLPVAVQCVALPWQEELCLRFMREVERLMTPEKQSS

[2] = Fatty acid amide measurements ex vivo (plasma levels in mice); details: 1 mg/kg intraperitoneal
Procedure: CD1 mice received intraperitoneal injections of vehicle (5% polyethylene glycol 400-5% Tween-80 in saline, 5 ml/kg) or ARN272 (1 mg/kg) and were sacrificed 1 h or 2 h later under isoflurane anaesthesia. Blood was collected through a left cardiac puncture and centrifuged at 2000×g for 30 min. Plasma (0.2 ml) was incubated with 1 ml cold acetone, centrifuged at 1,500×g for 15 min at 4° C. and suspended in 50% methanol (2 ml) containing the following deuterium-containing standards: […] Lipids were reconstituted in methanol (0.1 ml) and measured by isotope-dilution liquid chromatography/mass spectrometry (Fu, J. et al., J Biol Chem, 282, 1518 (2007)).

rat brain FAAH = target: T4, rat brain FAAH (Rattus norvegicus, UniProt P97612); assay: FAAH activity assay, rat brain; type: biochemical; details: weak and incomplete inhibition
T4 construct: from tissue; host or cells: rat brain membranes
T4 sequence (P97612 1-579): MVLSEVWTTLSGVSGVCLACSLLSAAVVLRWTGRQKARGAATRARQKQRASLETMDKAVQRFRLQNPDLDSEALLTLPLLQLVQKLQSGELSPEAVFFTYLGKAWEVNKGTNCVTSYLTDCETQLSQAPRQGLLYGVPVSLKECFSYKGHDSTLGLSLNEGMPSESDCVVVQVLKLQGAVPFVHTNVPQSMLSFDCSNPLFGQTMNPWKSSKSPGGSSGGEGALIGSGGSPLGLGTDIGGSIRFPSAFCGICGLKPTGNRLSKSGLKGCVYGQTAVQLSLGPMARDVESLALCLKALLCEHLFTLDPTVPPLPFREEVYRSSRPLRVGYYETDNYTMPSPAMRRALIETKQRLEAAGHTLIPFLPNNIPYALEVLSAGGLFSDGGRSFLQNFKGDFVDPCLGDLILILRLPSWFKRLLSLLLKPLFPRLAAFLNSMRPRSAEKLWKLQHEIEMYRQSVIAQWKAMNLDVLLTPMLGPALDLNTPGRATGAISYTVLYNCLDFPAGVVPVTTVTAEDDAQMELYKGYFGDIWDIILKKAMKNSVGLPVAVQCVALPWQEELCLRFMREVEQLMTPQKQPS
Procedure: Cells were harvested and subjected to sonication in Tris-HCl buffer (50 mM, pH 8.0) containing sucrose ([…]). Debris was removed by centrifugation for 5 min at 1,000×g, and protein concentration measured using a commercial kit (Bio-Rad, Hercules, Calif.). […] After stopping the reactions with chloroform/methanol (1:1, vol/vol, 1 ml), radioactivity was measured in the aqueous layers.

[3] = system: rat cortical neurons in primary cultures; assay: [3H]-anandamide accumulation in rat cortical neurons in primary cultures; type: cell-based; details: Cortical neurone, read-out: IC50, inhibition of [3H]-anandamide accumulation in rat cortical neurons
Procedure: Primary cultures of rat cortical neurons were prepared as described (Evans, M. S. et al., J Neurosci Methods, 79, 37 (1998)). Briefly, cerebral cortices from 18 day-old rat embryos were dissected and cells were dissociated gently with a glass Pasteur pipette in phosphate-buffered saline (PBS, 10 mM, pH=7.5) containing glucose (6%, weight/volume). The cells were plated in 6-well plates (at a density of 5×10^5 cells per well) coated with poly-(L)-ornithine (10 μg/ml) and poly(DL)-lysine (100 μg/ml), and cultured in Eagle's Minimum Essential Medium (MEM) supplemented with heat-inactivated horse serum (5%, vol/vol) and fetal bovine serum (FBS, 5%, vol/vol), glucose (30 mM), L-glutamine (2 mM), penicillin (10 units/ml), streptomycin (10 μg/ml) and HEPES (15 mM, pH 7.4). After 3 days in culture, media were replaced with Neurobasal (Invitrogen, Carlsbad, Calif.) supplemented with B-27 containing L-glutamine (0.1 mM), streptomycin (10 μg/ml) and penicillin (10 units/ml). The cultures were maintained at 37° C. in a humidified atmosphere of 95% air and 5% CO2. […] The cells were rinsed twice with Tris-Krebs buffer, scraped twice into sodium hydroxide (0.2 N, 0.5 ml) and transferred into scintillation vials. […] All experiments were conducted in triplicate.

[4] = target: T5, CB1 cannabinoid receptors (Rattus norvegicus, UniProt P20272); assay: Cannabinoid receptor binding assay, [3H]-CP55940 to rat brain membranes
T5 construct: Brain membrane protein (50 μg) was incubated at 30° C. for 1 hr; from tissue; host or cells: rat brain membranes
T5 sequence (P20272 whole entry): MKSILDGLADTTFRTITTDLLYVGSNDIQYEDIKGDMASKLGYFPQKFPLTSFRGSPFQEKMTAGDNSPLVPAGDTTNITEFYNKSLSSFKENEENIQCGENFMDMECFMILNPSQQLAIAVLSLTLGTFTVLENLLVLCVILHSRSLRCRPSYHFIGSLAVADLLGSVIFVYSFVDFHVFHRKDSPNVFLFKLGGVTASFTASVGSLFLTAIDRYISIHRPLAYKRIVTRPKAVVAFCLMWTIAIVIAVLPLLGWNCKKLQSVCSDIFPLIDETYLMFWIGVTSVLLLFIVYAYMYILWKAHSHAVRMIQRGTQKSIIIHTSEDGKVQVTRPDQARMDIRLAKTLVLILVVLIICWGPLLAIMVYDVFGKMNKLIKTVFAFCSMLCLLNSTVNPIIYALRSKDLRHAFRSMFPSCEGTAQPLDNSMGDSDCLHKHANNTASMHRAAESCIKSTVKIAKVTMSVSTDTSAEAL

SMILES: CC(C)(C)c1ccc(/C=C/C(=O)Nc2ccc3c(c2)OCCO3)cc1 [AMG9810, reference compound]
- effect of antagonist on the anti-hyperalgesic and anti-edema effects of ARN272 (carrageenan-treated mice): ineffective

SMILES: CCCCC/C=C\C/C=C\C/C=C\C/C=C\CCCC(=O)Nc1ccc(O)cc1C [VDM11]
- effect on [3H]-anandamide accumulation in FLAT-expressing Hek293 cells ([1]; transport inhibitors): prevented

SMILES: COc1ccc(C(=O)c2c(C)n(CCN3CCOCC3)c3cc(I)ccc23)cc1 [AM630, reference compound]
- effect of antagonist on the anti-hyperalgesic and anti-edema effects of ARN272 (carrageenan-treated mice): ineffective

SMILES: CCCCC/C=C\C/C=C\C/C=C\C/C=C\CCCC(=O)NCc1ccoc1 [UCM707]
- effect on [3H]-anandamide accumulation in FLAT-expressing Hek293 cells ([1]; transport inhibitors): prevented

SMILES: CCCCC/C=C\C/C=C\C/C=C\C/C=C\CCCC(=O)Nc1ccc(O)cc1 [AM404]
- pIC50 [1]: 5.40
- pIC50 (rat FLAT-GST; purified recombinant FLAT, read-out: IC50, displacement of [3H]-anandamide binding to FLAT-GST): 5.28

SMILES: Cc1c(C(=O)NN2CCCCC2)nn(-c2ccc(Cl)cc2Cl)c1-c1ccc(I)cc1 [AM251, reference compound]
- effect of antagonist on the anti-hyperalgesic and anti-edema effects of ARN272 (carrageenan-treated mice): suppressed

SMILES: CCCCC/C=C\C/C=C\C/C=C\C/C=C\CCCC(=O)NCCO [anandamide]
- Km (rat cortical neurons): 1.2 µM
- effect on [3H]-anandamide accumulation in FLAT-expressing Hek293 cells ([1]; non-radioactive anandamide, 100 μM): prevented
- pKd (rat FLAT-GST; saturation binding, 25° C., 2 h, read-out: dissociation constant, Kd, of [3H]-anandamide binding to FLAT-GST): 5.70

SMILES: O=C(Nc1ccccc1)c1ccc(Nc2nnc(-c3ccc(O)cc3)c3ccccc23)cc1 [ARN272, 4-{[4-(4-hydroxyphenyl)phthalazin-1-yl]amino-N-phenylbenzamide}]
- pIC50 [1]: 5.46
- fraction hydrolyzed by recombinant human FAAH-1 (recombinant human FAAH-1): ≈ 5%
- mechanical hyperalgesia in inflamed paws (carrageenan-treated mice; 0.01-3 mg/kg intraperitoneal): dose-dependent reduction
- thermal hyperalgesia in inflamed paws (carrageenan-treated mice; 0.01-3 mg/kg intraperitoneal): dose-dependent reduction
- duration of anti-hyperalgesic effect (carrageenan-treated mice; after intraplantar carrageenan): up to 4 h
- paw edema (carrageenan-treated mice; intraperitoneal): substantially reduced
- plasma concentrations of anandamide [2]: increased
- plasma levels of 2-AG [2]: without changing
- plasma levels of OEA [2]: without changing
- plasma levels of PEA [2]: without changing
- inhibition at 100 µM (rat brain FAAH): 50%
- pIC50 [3]: 5.82
- effect on [3H]-CP55940 binding to rat brain membranes [4]: did not significantly alter
